According to patent US9663513B2, “Pyrimidine PDE10 inhibitors” (Merck Sharp & Dohme Corp., priority 2012, dated 2017):

Biological target: human PDE10A2 (Homo sapiens (Human), UniProt Q9Y233)
Assay: PDE10 fluorescence polarization (IMAP FP) inhibition assay
Type: biochemical
Details: human PDE10A2 from transfected AD293 cells; FAM-labeled cAMP 50 nM; apparent inhibition constant; read-out: PDE10A Ki
How it was run: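 Cytoplasmic lysate of AD293 cells transiently expressing human PDE10A2 (enzyme level giving 20% conversion) incubated with 50 nM FAM-cAMP in pH 7.2 Tris/MgCl2 buffer, 30 min at room temperature. IMAP binding solution added, FP read after ≥1 h; 10-point 3-fold compound titrations fitted to a four-parameter equation.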

Chain of human PDE10A2 (Q9Y233 267-1055): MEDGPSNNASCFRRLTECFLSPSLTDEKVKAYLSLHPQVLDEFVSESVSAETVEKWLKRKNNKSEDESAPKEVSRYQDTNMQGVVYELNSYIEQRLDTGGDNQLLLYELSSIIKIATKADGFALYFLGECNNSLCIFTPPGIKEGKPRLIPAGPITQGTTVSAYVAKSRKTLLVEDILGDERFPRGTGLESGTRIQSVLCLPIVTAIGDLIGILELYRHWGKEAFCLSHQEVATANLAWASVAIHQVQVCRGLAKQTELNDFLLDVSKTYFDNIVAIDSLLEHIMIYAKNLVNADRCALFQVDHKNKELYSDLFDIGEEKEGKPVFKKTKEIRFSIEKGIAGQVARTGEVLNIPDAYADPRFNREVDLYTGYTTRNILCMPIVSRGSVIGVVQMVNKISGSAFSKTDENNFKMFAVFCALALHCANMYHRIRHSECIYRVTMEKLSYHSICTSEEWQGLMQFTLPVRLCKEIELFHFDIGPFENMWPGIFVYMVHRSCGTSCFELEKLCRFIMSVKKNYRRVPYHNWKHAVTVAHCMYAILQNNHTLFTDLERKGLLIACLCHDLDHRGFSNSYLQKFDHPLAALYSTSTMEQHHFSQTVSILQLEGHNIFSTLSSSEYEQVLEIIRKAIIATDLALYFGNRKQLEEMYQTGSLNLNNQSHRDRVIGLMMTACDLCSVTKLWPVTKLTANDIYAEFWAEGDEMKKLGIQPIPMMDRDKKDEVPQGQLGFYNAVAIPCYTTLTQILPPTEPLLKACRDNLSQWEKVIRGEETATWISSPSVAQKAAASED

| Ki | Structure (SMILES) |
| --- | --- |
| 0.56 nM | Cc1cccc([C@H]2C[C@@H]2COc2nc(C)ncc2-c2cn(C)nc2C(C)O)n1 (stereo partly drawn) [Example 158, 1-(1-methyl-4-(2-methyl-4-(((1S,2S)-2-(6-methylpyridin-2-yl)cyclopropyl)methoxy)pyrimidin-5-yl)-1H-pyrazol-3-yl)ethanol] |
| 0.29 nM | COc1ccc([C@H]2C[C@@H]2COc2nc(C)ncc2-c2ccc(C(=O)O)cc2)nc1 [Example 172, 4-(4-(((1S,2S)-2-(5-methoxypyridin-2-yl)cyclopropyl)methoxy)-2-methylpyrimidin-5-yl)benzoic acid] |
| 2.81 nM | Cc1ccc([C@H]2C[C@@H]2COc2nc(C)ncc2C2CCC3(CC2)OCCO3)nc1 [Example 184, 2-methyl-4-(((1S,2S)-2-(5-methylpyridin-2-yl)cyclopropyl)methoxy)-5-(1,4-dioxaspiro[4.5]decan-8-yl)pyrimidine] |
| 0.37 nM | CCc1ccc(-c2cnc(C)nc2OC[C@H]2C[C@@H]2c2ccc3ccccc3n2)cc1 (single isomer, unassigned) [Example 30] |
| 1.64 nM | COc1ccc([C@H]2C[C@@H]2COc2nc(C)ncc2-c2ccc(-c3nnn(C)n3)nc2)nc1 [Example 230, 4-(((1S,2S)-2-(5-methoxypyridin-2-yl)cyclopropyl)methoxy)-2-methyl-5-(6-(2-methyl-2H-tetrazol-5-yl)pyridin-3-yl)pyrimidine] |
| 0.14 nM | CCOc1cc(-c2cnc(C)nc2OC[C@H]2C[C@@H]2c2ccc(OC)cn2)ccn1 [Example 75, 5-(2-ethoxypyridin-4-yl)-4-(((1S,2S)-2-(5-methoxypyridin-2-yl)cyclopropyl)methoxy)-2-methylpyrimidine] |
| 0.06 nM | Cc1ncc(C2CCC(=O)CC2)c(OC[C@H]2C[C@@H]2c2ccc3ccccc3n2)n1 [Example 191, 4-(2-methyl-4-(((1S,2S)-2-(quinolin-2-yl)cyclopropyl)methoxy)pyrimidin-5-yl)cyclohexanone] |
| 0.24 nM | CCc1ccc([C@H]2C[C@@H]2COc2nc(C)ncc2-c2cn(C)nc2C(C)O)nc1 (stereo partly drawn) [Example 163, 1-(4-(4-(((1S,2S)-2-(5-ethylpyridin-2-yl)cyclopropyl)methoxy)-2-methylpyrimidin-5-yl)-1-methyl-1H-pyrazol-3-yl)ethanol] |
| 0.04 nM | CCOc1cccc(-c2cnc(C)nc2OC[C@H]2C[C@@H]2c2ccc3ccccc3n2)c1 (single isomer, unassigned) [Example 40, 2,2,2-trifluoroacetate] |
| 10.4 nM | C=Cc1cnc(C)nc1OC[C@H]1C[C@@H]1c1ccc(C)cn1 [Example 54, 2-methyl-4-(((1S,2S)-2-(5-methylpyridin-2-yl)cyclopropyl)methoxy)-5-vinylpyrimidine] |
| 1.41 nM | COc1ccc([C@H]2C[C@@H]2COc2nc(C)ncc2-c2ccc(C(N)=O)nc2)nc1 [Example 105, 5-(4-(((1S,2S)-2-(5-methoxypyridin-2-yl)cyclopropyl)methoxy)-2-methylpyrimidin-5-yl)picolinamide] |
| 0.14 nM | Cc1ccc([C@H]2C[C@@H]2COc2nc(C)ncc2-c2ccc(C(C)O)nc2)nc1 (stereo partly drawn) [Example 149, 1-(5-(2-methyl-4-(((1S,2S)-2-(5-methylpyridin-2-yl)cyclopropyl)methoxy)pyrimidin-5-yl)pyridin-2-yl)ethanol] |
| 0.86 nM | CCc1ccc(-c2cnc(C)nc2OC[C@H]2C[C@@H]2c2ccc(OC)cn2)cn1 [Example 85, 5-(6-ethylpyridin-3-yl)-4-(((1S,2S)-2-(5-methoxypyridin-2-yl)cyclopropyl)methoxy)-2-methylpyrimidine] |
| 2.68 nM | COc1ccc([C@H]2C[C@@H]2COc2nc(C)ncc2-c2ccc(C(=O)O)nn2)nc1 [Example 99, 6-(4-(((1S,2S)-2-(5-methoxypyridin-2-yl)cyclopropyl)methoxy)-2-methylpyrimidin-5-yl)pyridazine-3-carboxylic acid] |
| 15.7 nM | COc1ccc([C@H]2C[C@@H]2COc2nc(C)ncc2-c2nn[nH]c2CO)nc1 [Example 249, (4-(4-(((1S,2S)-2-(5-methoxypyridin-2-yl)cyclopropyl)methoxy)-2-methylpyrimidin-5-yl)-1H-1,2,3-triazol-5-yl)methanol] |
